Measured values as given in the NIST ThermoML archive (doi:10.1016/j.jct.2012.11.027).
± gives the expanded uncertainty stated by the source.

Tests used:
[1] = 101 kPa, Liquid, Linear variable-path acoustic interferometer
[2] = xn = mol fraction of the nth substance listed; conditions: 101 kPa, Liquid, Linear variable-path acoustic interferometer, x2 = 0

Structure (SMILES): CCCCO [butan-1-ol]
- speed of sound ([1]; 288.15 K): 1282.2 ± 1.9 m/s
- speed of sound ([1]; 293.15 K): 1262.4 ± 1.9 m/s
- speed of sound ([1]; 298.15 K): 1242.6 ± 1.8 m/s
- speed of sound ([1]; 303.15 K): 1225.8 ± 1.8 m/s
- speed of sound ([1]; 308.15 K): 1207.6 ± 1.8 m/s
- speed of sound ([1]; 313.15 K): 1189.2 ± 1.8 m/s
- speed of sound ([1]; 318.15 K): 1170 ± 1.8 m/s

Structure (SMILES): CCCCO [butan-1-ol] + C=CC(=O)OC
- speed of sound ([2]; 288.15 K): 1282.2 ± 1.9 m/s
- speed of sound ([2]; 293.15 K): 1262.4 ± 1.9 m/s
- speed of sound ([2]; 298.15 K): 1242.6 ± 1.8 m/s
- speed of sound ([2]; 303.15 K): 1225.8 ± 1.8 m/s
- speed of sound ([2]; 308.15 K): 1207.6 ± 1.8 m/s
- speed of sound ([2]; 313.15 K): 1189.2 ± 1.8 m/s
- speed of sound ([2]; 318.15 K): 1170 ± 1.8 m/s

Structure (SMILES): CCCCCCCCCCO [decan-1-ol]
- speed of sound ([1]; 288.15 K): 1410.6 ± 2 m/s
- speed of sound ([1]; 293.15 K): 1393.6 ± 2 m/s
- speed of sound ([1]; 298.15 K): 1377.3 ± 2 m/s
- speed of sound ([1]; 303.15 K): 1359.8 ± 2 m/s
- speed of sound ([1]; 308.15 K): 1345.7 ± 2 m/s
- speed of sound ([1]; 313.15 K): 1326.7 ± 2 m/s
- speed of sound ([1]; 318.15 K): 1312.1 ± 1.9 m/s

Structure (SMILES): CCCCCCCCCCO [decan-1-ol] + C=CC(=O)OC
- speed of sound ([2]; 288.15 K): 1410.6 ± 2 m/s
- speed of sound ([2]; 293.15 K): 1393.6 ± 2 m/s
- speed of sound ([2]; 298.15 K): 1377.3 ± 2 m/s
- speed of sound ([2]; 303.15 K): 1359.8 ± 2 m/s
- speed of sound ([2]; 308.15 K): 1345.7 ± 2 m/s
- speed of sound ([2]; 313.15 K): 1326.7 ± 2 m/s
- speed of sound ([2]; 318.15 K): 1312.1 ± 1.9 m/s

Structure (SMILES): CCCCCCO [hexan-1-ol]
- speed of sound ([1]; 288.15 K): 1339.2 ± 1.9 m/s
- speed of sound ([1]; 293.15 K): 1321.2 ± 1.9 m/s
- speed of sound ([1]; 298.15 K): 1306.9 ± 1.9 m/s
- speed of sound ([1]; 303.15 K): 1289.5 ± 1.9 m/s
- speed of sound ([1]; 308.15 K): 1275.7 ± 1.9 m/s
- speed of sound ([1]; 313.15 K): 1256.3 ± 1.9 m/s
- speed of sound ([1]; 318.15 K): 1237.5 ± 1.8 m/s

Structure (SMILES): CCCCCCO [hexan-1-ol] + C=CC(=O)OC
- speed of sound ([2]; 288.15 K): 1339.2 ± 1.9 m/s
- speed of sound ([2]; 293.15 K): 1321.2 ± 1.9 m/s
- speed of sound ([2]; 298.15 K): 1306.9 ± 1.9 m/s
- speed of sound ([2]; 303.15 K): 1289.5 ± 1.9 m/s
- speed of sound ([2]; 308.15 K): 1275.7 ± 1.9 m/s
- speed of sound ([2]; 313.15 K): 1256.3 ± 1.9 m/s
- speed of sound ([2]; 318.15 K): 1237.5 ± 1.8 m/s

Structure (SMILES): C=CC(=O)OC [methyl propenoate]
- speed of sound ([1]; 288.15 K): 1226.6 ± 1.8 m/s
- speed of sound ([1]; 293.15 K): 1204.6 ± 1.8 m/s
- speed of sound ([1]; 298.15 K): 1183.6 ± 1.8 m/s
- speed of sound ([1]; 303.15 K): 1162.2 ± 1.7 m/s
- speed of sound ([1]; 308.15 K): 1139.1 ± 1.7 m/s
- speed of sound ([1]; 313.15 K): 1117.8 ± 1.7 m/s
- speed of sound ([1]; 318.15 K): 1095.7 ± 1.7 m/s

Structure (SMILES): CCCCCCCCO [octan-1-ol]
- speed of sound ([1]; 288.15 K): 1390.2 ± 2 m/s
- speed of sound ([1]; 293.15 K): 1371.5 ± 2 m/s
- speed of sound ([1]; 298.15 K): 1352.4 ± 2 m/s
- speed of sound ([1]; 303.15 K): 1333.1 ± 2 m/s
- speed of sound ([1]; 308.15 K): 1315.7 ± 2 m/s
- speed of sound ([1]; 313.15 K): 1298.9 ± 1.9 m/s
- speed of sound ([1]; 318.15 K): 1282.9 ± 1.9 m/s

Structure (SMILES): CCCCCCCCO [octan-1-ol] + C=CC(=O)OC
- speed of sound ([2]; 288.15 K): 1390.2 ± 2 m/s
- speed of sound ([2]; 293.15 K): 1371.5 ± 2 m/s
- speed of sound ([2]; 298.15 K): 1352.4 ± 2 m/s
- speed of sound ([2]; 303.15 K): 1333.1 ± 2 m/s
- speed of sound ([2]; 308.15 K): 1315.7 ± 2 m/s
- speed of sound ([2]; 313.15 K): 1298.9 ± 1.9 m/s
- speed of sound ([2]; 318.15 K): 1282.9 ± 1.9 m/s
